Assay results published in patent US7524485B2, “Skin lightening agents, compositions and methods” (Unilever Home & Personal Care, USA, Division of Conopco, …, priority 2002, dated 2009).
Like-named read-outs stand apart in the source and are kept apart here.

Target: T1, mushroom tyrosinase
T1 construct: mushroom tyrosinase (Sigma T-7755)
Test: Mushroom Tyrosinase Assay
Type: biochemical
Settings: L-DOPA substrate, pH 7.0, absorbency 475 nm, vs ethanol control
Experimental: Mushroom tyrosinase inhibition is indicative of reduction in melanin synthesis, thereby showing skin lightening effect.
Into each well of a 96-well plate, 150 microliters of phosphate buffer (100 mM, pH 7.0), 10 microliters of L-DOPA (L-3, 4-Dihydroxyphenylalanine, 10 mM), and 20 microliters of skin lightening agent (dissolved in ethanol, which is the control) were added. Following an initial measurement of background absorbency at 475-nm, 20 microliters of mushroom tyrosinase (Sigma T-7755; 6050 units/ml) was added and incubated at room temperature.
Absorbency is read at 475-nm over the following time points: 0, 2, 4, and 6.5 minutes. The data is plotted as 475-nm absorbency vs. time (minutes) and the slope of the line is calculated (ΔAbs 475 nm/min).

[1] = Experiment 1, read-out: IC50 (Concentration) Experiment 1
[2] = Experiment 2, read-out: IC50 (Concentration) Experiment 2

SMILES | IC50 [1] [nM] | IC50 [2] [nM]
CCc1ccc(O)cc1O [4-Ethyl Resorcinol, reference compound] | 550 | 400
Oc1ccc(C2SCCS2)c(O)c1 [5-member Di-Thianyl Resorcinol, 4-[2′-(1′,3′-dithiacyclopenty)]-1,3-dihydroxybenzene] | 3800 | 2500
Oc1ccc(C2SCCCS2)c(O)c1 [6-member Di-Thianyl Resorcinol, 4-[2′-(1′,3′-dithiacyclohexy)]-1,3-dihydroxybenzene] | 1700 | 1000
